This note sets out measurements from patent publication US8420052B2, “Imaging agents useful for identifying AD pathology” (Siemens Medical Solutions USA, Inc., priority 2008, dated 2013).

This assay deals with amyloid plaques and fibrils in human brain slices. The assay can be described thus: Human brain slice competition assay using autoradiography. Format: binding. As to conditions: radiolabeled tracer approx. 20 uCi, 90 min rt, lower = more displacement; for _max low dose (percent dose remaining relative to control with no blocker): blocker 0.25 uM; for _max high dose (percent dose remaining relative to control with no blocker): blocker 2.5 uM. On the procedure:
Human Brain Slice Competition Assay Using Autoradiography
Briefly, 5 micron thick human brain slices from regions of the brain bearing high amyloid plaque and fibril burden were incubated with approximately 20 uCi of a radiolabeled tracer in 2.5%:2.5%:95% DMSO:EtOH:PBS in the presence of blocker (2.5 and 0.25 uM total concentration) or absence of blocker (control). The slices were incubated at rt for 90 min. The slices were then quickly washed in PBS, followed by 70% EtOH:PBS for 2 min, then 30% EtOH:PBS for 2 min and then quickly washed with PBS. The slices were dried for 30 min and then exposed on autoradiographic film for 20 min. The brain slices were then removed from the slide and the radioactivity counted in a gamma counter. The percent dose remaining, relative to a control with no blocker, at 0.25 uM is represented in the “_max low dose” column. The percent dose remaining, relative to a control with no blocker, at 2.5 uM is represented in the “_max high dose” column.

Consider `O=C(/C=C/C=C/c1ccccc1)c1cccs1` [Compound W24], for which the “_max low dose (percent dose remaining relative to control with no blocker)” value came to 55.16% and the “_max high dose (percent dose remaining relative to control with no blocker)” value came to 23.51%.

As to `COc1cc2c(cc1N)oc1ccccc12` [Compound W33], the “_max low dose (percent dose remaining relative to control with no blocker)” value is on record as 82.52% and the “_max high dose (percent dose remaining relative to control with no blocker)” value turned out to be 36.72%.

As for `CC(=O)Nc1ccc2sc3ccccc3c2c1` [Compound W34], the “_max low dose (percent dose remaining relative to control with no blocker)” value amounted to 84.84% and the “_max high dose (percent dose remaining relative to control with no blocker)” value was determined as 73.74%.

`Nc1ccc2c(c1)[nH]c1cc(OCc3ccccc3)ccc12` [Compound W42]: the “_max low dose (percent dose remaining relative to control with no blocker)” value turned out to be 49.95% and the “_max high dose (percent dose remaining relative to control with no blocker)” value worked out at 17.60%.

On to `Nc1ccc2[nH]c3ccc(OCc4ccccc4)cc3c2c1` [Compound W60], for which the “_max low dose (percent dose remaining relative to control with no blocker)” value stood at 105.87% and the “_max high dose (percent dose remaining relative to control with no blocker)” value amounted to 115.14%.

For the molecule `COc1ccc2c(c1)[nH]c1c(C)nccc12` [Compound W65], the “_max low dose (percent dose remaining relative to control with no blocker)” value is listed as 105.49% and the “_max high dose (percent dose remaining relative to control with no blocker)” value is listed as 94.16%.

For the molecule `c1ccc2c(c1)[nH]c1cnccc12` [Compound W67], the “_max low dose (percent dose remaining relative to control with no blocker)” value was determined as 101.83% and the “_max high dose (percent dose remaining relative to control with no blocker)” value is 94.93%.

On to `c1ccc2c(c1)[nH]c1cc(OCCOCCOCCOc3ccc4c(c3)[nH]c3ccccc34)ccc12` [Compound W70], for which the “_max low dose (percent dose remaining relative to control with no blocker)” value was 88.20% and the “_max high dose (percent dose remaining relative to control with no blocker)” value came out at 89.53%.

With `CN(C)c1ccc(/C=C2\C(=O)Nc3ccc(F)cc32)cc1` [Compound W71], the “_max low dose (percent dose remaining relative to control with no blocker)” value stood at 104.61% and the “_max high dose (percent dose remaining relative to control with no blocker)” value was 88.00%.

On to `Oc1cccc(-c2cc3ccccn3c2)c1` [Compound W73], for which the “_max low dose (percent dose remaining relative to control with no blocker)” value turned out to be 66.38% and the “_max high dose (percent dose remaining relative to control with no blocker)” value was 35.16%.

For `N#Cc1ccc(/C=C2\C(=O)Nc3ccc(F)cc32)cc1` [Compound W79], the “_max low dose (percent dose remaining relative to control with no blocker)” value is given as 92.77% and the “_max high dose (percent dose remaining relative to control with no blocker)” value is reported as 96.90%.

For the molecule `c1ccc2c(c1)Cn1c-2nc2ccccc21` [Compound W81], the “_max low dose (percent dose remaining relative to control with no blocker)” value amounted to 96.06% and the “_max high dose (percent dose remaining relative to control with no blocker)” value is 81.94%.

With `FCCOc1cccc(-c2cc3ccccn3c2)c1` [Compound W84], the “_max low dose (percent dose remaining relative to control with no blocker)” value is 97.22% and the “_max high dose (percent dose remaining relative to control with no blocker)” value is given as 40.32%.

For the molecule `O=c1sc2ccccc2n1/C=C/c1ccccc1` [Compound W88], the “_max low dose (percent dose remaining relative to control with no blocker)” value is recorded as 29.58% and the “_max high dose (percent dose remaining relative to control with no blocker)” value was 7.65%.

As to `CC(=O)c1ccc2[nH]c(=O)sc2c1` [Compound W92], the “_max low dose (percent dose remaining relative to control with no blocker)” value is listed as 112.87% and the “_max high dose (percent dose remaining relative to control with no blocker)” value worked out at 88.58%.

Take `FCCOCCOCCOc1ccc2c(c1)[nH]c1sc3ccccc3c12` [Compound W94]: the “_max low dose (percent dose remaining relative to control with no blocker)” value was determined as 103.76% and the “_max high dose (percent dose remaining relative to control with no blocker)” value is 40.74%.

For `N#CC1c2ccc(O)cc2N2C=CC=CC12` (stereo not drawn) [Compound W99], the “_max low dose (percent dose remaining relative to control with no blocker)” value amounted to 87.14% and the “_max high dose (percent dose remaining relative to control with no blocker)” value came out at 76.06%.

In the case of `NC(=O)c1ccc2cc(-c3cccc([N+](=O)[O-])c3)cn2c1` [Compound W100], the “_max low dose (percent dose remaining relative to control with no blocker)” value is recorded as 97.53% and the “_max high dose (percent dose remaining relative to control with no blocker)” value is 75.02%.

As for `CN(CCOCCOCCF)c1ccc2c(c1)[nH]c1cc(O)ccc12` [Compound W101], the “_max low dose (percent dose remaining relative to control with no blocker)” value turned out to be 81.33% and the “_max high dose (percent dose remaining relative to control with no blocker)” value came out at 73.62%.

Regarding `CN(C)c1ccc2c3ccc(OCCF)cc3n(CCF)c2c1` [Compound W102], the “_max low dose (percent dose remaining relative to control with no blocker)” value is given as 91.92% and the “_max high dose (percent dose remaining relative to control with no blocker)” value was found to be 92.00%.

For `Oc1ccc(-c2cc3ccccn3c2)cc1` [Compound W103], the “_max low dose (percent dose remaining relative to control with no blocker)” value came to 35.38% and the “_max high dose (percent dose remaining relative to control with no blocker)” value came out at 3.50%.

For the molecule `CNc1ccc2c(c1)[nH]c1cc(OCc3ccccc3)ccc12` [Compound W104], the “_max low dose (percent dose remaining relative to control with no blocker)” value came out at 48.35% and the “_max high dose (percent dose remaining relative to control with no blocker)” value is listed as 34.77%.

As to `CNc1ccc2c(c1)[nH]c1cc(OCCF)ccc12` [Compound W106], the “_max low dose (percent dose remaining relative to control with no blocker)” value came to 46.04% and the “_max high dose (percent dose remaining relative to control with no blocker)” value turned out to be 21.03%.

Consider `COc1ccc2c(c1)sc1nc(-c3ccc(F)cc3)cn12` [Compound W119], for which the “_max high dose (percent dose remaining relative to control with no blocker)” value is on record as 7.85%.

In the case of `CNc1ccc(-c2nc3ccc(OC)cc3s2)cn1` [Compound W184], the “_max high dose (percent dose remaining relative to control with no blocker)” value was 8.05%.

Turning to `CNc1ccc(-c2ccc3scnc3c2)cc1` [Compound W189, 4-(benzo[d]thiazol-5-yl)-N-methylaniline], the “_max high dose (percent dose remaining relative to control with no blocker)” value came to 9.53%.

With `FCCOCCOCCOc1ccc2c(c1)[nH]c1c3ccccc3sc21` [DHK4-57], the “_max low dose (percent dose remaining relative to control with no blocker)” value stood at 81.06% and the “_max high dose (percent dose remaining relative to control with no blocker)” value stood at 30.70%.

As for `FCCOCCOCCOc1ccc2c(c1)[nH]c1ncccc12` [DHK4-58], the “_max low dose (percent dose remaining relative to control with no blocker)” value was found to be 88.82% and the “_max high dose (percent dose remaining relative to control with no blocker)” value amounted to 85.78%.

In the case of `CNc1ccc2c(c1)[nH]c1cc(O)ccc12` [GC3125], the “_max low dose (percent dose remaining relative to control with no blocker)” value was found to be 47.08% and the “_max high dose (percent dose remaining relative to control with no blocker)” value turned out to be 18.59%.

Regarding `FCCCCOc1cccc(-c2cc3ccccn3c2)c1` [IN3], the “_max low dose (percent dose remaining relative to control with no blocker)” value is recorded as 98.13% and the “_max high dose (percent dose remaining relative to control with no blocker)” value is on record as 67.27%.

For `CN(CCF)c1ccc(/C=C2/C(=O)Nc3ccccc32)cc1` [OX-2, (E)-3-(4-((2-fluoroethyl)(methyl)amino)benzylidene)indolin-2-one], the “_max low dose (percent dose remaining relative to control with no blocker)” value worked out at 68.22% and the “_max high dose (percent dose remaining relative to control with no blocker)” value is recorded as 82.78%.

Turning to `FCCNc1nc(-c2ccc3ccccc3c2)cs1` [TZ001, N-(2-fluoroethyl)-4-(naphthalen-2-yl)thiazol-2-amine], the “_max low dose (percent dose remaining relative to control with no blocker)” value stood at 98.06% and the “_max high dose (percent dose remaining relative to control with no blocker)” value is 52.00%.

As to `COc1ccc(-n2c(=O)sc3ccccc32)cc1` [UG470, 3-(4-methoxyphenyl)benzo[d]thiazol-2(3H)-one], the “_max low dose (percent dose remaining relative to control with no blocker)” value came out at 81.29% and the “_max high dose (percent dose remaining relative to control with no blocker)” value is on record as 79.87%.
